The record followed here is patent US20260217735A1, “HETEROCYCLES AND USES THEREOF” (Kumquat Biosciences Inc., priority 2023, published 2026).

For assay [1], the system named is MiaPaca2 cells. Kind of assay: Ras cellular assay, growth of cells with K-Ras G12C mutation. The class given is cell-based. The conditions noted are these: Homo sapiens, MIA PaCa-2; cell proliferation assay; bins ≤500 nM / >500 nM; read-out: Inhibition of MiaPaca2 Cells (IC50). In a few lines: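 MIA PaCa-2 cells (K-Ras G12C, about 125-150 cells/well) grown in 0.25% soft agar over a 0.6% agar base, compound added on day 2 at 0.3% final DMSO. Growth read on day 10 by Cell Titer 96 AQueous absorbance (490 nm, reference 660 nm) against time-zero wells; IC50 from four-parameter fit.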

Assay [2] has as its target T1, KRAS G12D (Homo sapiens, UniProt P01116, G12D).
T1 construct: made in house; host or cells: E. coli, e.g. BL21 (DE3)
In words: HTRF assay, KRAS G12D interaction with SOS1. It counts as biochemical. The note with it: bins <500 nM / 500 nM to 1000 nM, read-out: Inhibition of KRAS G12D (IC50). In general terms: In TR-FRET formats the signal depends on donor and acceptor labels being close together.

In assay [3] the target is T2, KRAS WT (Homo sapiens, UniProt P01116).
T2 construct: made in house; host or cells: E. coli, e.g. BL21 (DE3)
Kind of assay: HTRF assay, wildtype KRAS interaction with SOS1. The class given is biochemical. The conditions noted are these: bins <500 nM / 500 nM to 1000 nM, read-out: Inhibition of KRAS WT (IC50).

The target in assay [4] is T3, KRAS G12V (Homo sapiens, UniProt P01116, G12V).
T3 construct: made in house; host or cells: E. coli, e.g. BL21 (DE3)
In words: HTRF assay, KRAS G12V interaction with SOS1. The class given is biochemical. The conditions noted are these: bins <500 nM / 500 nM to 1000 nM, read-out: Inhibition of KRAS G12V (IC50).

In assay [5] the target is T4, KRAS G12S (Homo sapiens, UniProt P01116, G12S).
T4 construct: made in house; host or cells: E. coli, e.g. BL21 (DE3)
Kind of assay: HTRF assay, KRAS G12S interaction with SOS1. The class given is biochemical. The note with it: bins <500 nM / 500 nM to 1000 nM, read-out: Inhibition of KRAS G12S (IC50).

As a reminder, the IC50 is the concentration that inhibits the measured activity by half.

T3 sequence (P01116 1-188 isoform P01116-2 G12V): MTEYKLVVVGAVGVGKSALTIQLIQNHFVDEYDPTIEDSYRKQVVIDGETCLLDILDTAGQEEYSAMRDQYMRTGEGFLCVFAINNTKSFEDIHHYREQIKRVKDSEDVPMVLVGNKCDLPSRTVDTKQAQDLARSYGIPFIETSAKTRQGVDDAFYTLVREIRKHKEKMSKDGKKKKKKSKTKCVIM
T1 sequence (P01116 1-188 isoform P01116-2 G12D): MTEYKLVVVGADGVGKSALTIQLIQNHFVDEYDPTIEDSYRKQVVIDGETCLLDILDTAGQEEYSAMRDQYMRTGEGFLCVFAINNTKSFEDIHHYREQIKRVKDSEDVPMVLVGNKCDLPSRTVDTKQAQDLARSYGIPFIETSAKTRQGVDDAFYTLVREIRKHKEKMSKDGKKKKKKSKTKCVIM
T2 sequence (P01116 1-188 isoform P01116-2): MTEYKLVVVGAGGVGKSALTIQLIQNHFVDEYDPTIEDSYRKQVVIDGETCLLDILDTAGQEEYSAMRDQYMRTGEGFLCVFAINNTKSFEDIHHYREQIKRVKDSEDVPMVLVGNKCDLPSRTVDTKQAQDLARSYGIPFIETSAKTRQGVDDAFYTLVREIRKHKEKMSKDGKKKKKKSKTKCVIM
T4 sequence (P01116 1-188 isoform P01116-2 G12S): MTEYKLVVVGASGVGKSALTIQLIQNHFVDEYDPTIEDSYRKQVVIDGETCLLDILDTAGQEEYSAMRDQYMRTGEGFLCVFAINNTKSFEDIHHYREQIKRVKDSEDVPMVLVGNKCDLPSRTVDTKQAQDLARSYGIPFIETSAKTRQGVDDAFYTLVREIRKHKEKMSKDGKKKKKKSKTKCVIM

As for `CCN(c1nc(OC[C@@]23CCCN2C[C@H](F)C3)nc2c(F)c(-c3ccc(F)c4sc(N)c(C#N)c34)c(C3CC3)cc12)[C@@H]1CCN(C(=O)n2ccnc2C)[C@@H]1C` [Compound 171, 2-amino-4-(6-cyclopropyl-4-(ethyl((2R,3R)-2-methyl-1-(2-methyl-1H-imidazole-1-carbonyl)pyrrolidin-3-yl)amino)-8-fluoro-2-(((2R,7aS)-2-fluorotetrahydro-1H-pyrrolizin-7a(5H)-yl)methoxy)quinazolin-7-yl)-7-fluorobenzo[b]thiophene-3-carbonitrile], the IC50 in assay [1] was at most 0.5 µM; in assay [2], under 0.5 µM; in assay [3] it was under 0.5 µM; in assay [4], under 0.5 µM; in assay [5], under 0.5 µM.

As to `C[C@@H]1[C@H](N(C)c2nc(OC[C@@]34CCCN3C[C@H](F)C4)nc3c(F)c(-c4ccc(F)c5sc(N)c(C#N)c45)c(Cl)cc23)CCN1C(=O)n1cccn1` [Compound 172, 2-amino-4-(6-chloro-8-fluoro-2-(((2R,7aS)-2-fluorotetrahydro-1H-pyrrolizin-7a(5H)-yl)methoxy)-4-(methyl((2R,3R)-2-methyl-1-(1H-pyrazole-1-carbonyl)pyrrolidin-3-yl)amino)quinazolin-7-yl)-7-fluorobenzo[b]thiophene-3-carbonitrile], the IC50 was at most 0.5 µM in assay [1]; under 0.5 µM in assay [2]; under 0.5 µM in assay [3]; under 0.5 µM in assay [4]; under 0.5 µM in assay [5].

In the case of `CC[C@@H]1[C@H](N(CC)c2nc(OC[C@@]34CCCN3C[C@H](F)C4)nc3c(F)c(-c4ccc(F)c5sc(N)c(C#N)c45)c(Cl)cc23)CCN1C(=O)n1ccnc1` [Compound 173, 2-amino-4-(6-chloro-4-(ethyl((2R,3R)-2-ethyl-1-(1H-imidazole-1-carbonyl)pyrrolidin-3-yl)amino)-8-fluoro-2-(((2R,7aS)-2-fluorotetrahydro-1H-pyrrolizin-7a(5H)-yl)methoxy)quinazolin-7-yl)-7-fluorobenzo[b]thiophene-3-carbonitrile], the IC50 was at most 0.5 µM in assay [1]; under 0.5 µM in assay [2]; under 0.5 µM in assay [3]; under 0.5 µM in assay [4]; under 0.5 µM in assay [5].

Turning to `Cc1ncn(C(=O)N2C[C@]3(CCCCN(c4nc(OC[C@@]56CCCN5C[C@H](F)C6)nc5c(F)c(-c6ccc(F)c7sc(N)c(C#N)c67)c(Cl)cc45)C3)[C@H]2C2(C)CC2)c1C` [Compound 174, 2-amino-4-(6-chloro-4-((1R,4R)-2-(4,5-dimethyl-1H-imidazole-1-carbonyl)-1-(1-methylcyclopropyl)-2,6-diazaspiro[3.6]decan-6-yl)-8-fluoro-2-(((2R,7aS)-2-fluorotetrahydro-1H-pyrrolizin-7a(5H)-yl)methoxy)quinazolin-7-yl)-7-fluorobenzo[b]thiophene-3-carbonitrile], the IC50 was at most 0.5 µM in assay [1]; under 0.5 µM in assay [2]; under 0.5 µM in assay [3]; under 0.5 µM in assay [4]; under 0.5 µM in assay [5].

Regarding `CCN(c1nc(OC[C@@]23CCCN2C[C@H](F)C3)nc2c(F)c(-c3ccc(F)c4sc(N)c(C#N)c34)c(C3CC3)cc12)[C@@H]1CCN(C(=O)n2cnc(C)c2C)[C@@H]1C` [Compound 175, 2-amino-4-(6-cyclopropyl-4-(((2R,3R)-1-(4,5-dimethyl-1H-imidazole-1-carbonyl)-2-methylpyrrolidin-3-yl)(ethyl)amino)-8-fluoro-2-(((2R,7aS)-2-fluorotetrahydro-1H-pyrrolizin-7a(5H)-yl)methoxy)quinazolin-7-yl)-7-fluorobenzo[b]thiophene-3-carbonitrile], the IC50 was at most 0.5 µM in assay [1]; under 0.5 µM in assay [2]; under 0.5 µM in assay [3]; under 0.5 µM in assay [4]; under 0.5 µM in assay [5].
